Experiment [1] concerns the target T1, Tumour suppressor p53/oncoprotein Mdm2 (Homo sapiens, UniProt P04637+Q00987). Description: Inhibition of p53 interaction to MDM2 (unknown origin) by fluorescence polarization assay. It is filed as protein assay. In general terms: In fluorescence polarisation assays a small probe gives low polarisation when free and higher when bound to something large.
Target sequence in this assay (P04637 whole entry): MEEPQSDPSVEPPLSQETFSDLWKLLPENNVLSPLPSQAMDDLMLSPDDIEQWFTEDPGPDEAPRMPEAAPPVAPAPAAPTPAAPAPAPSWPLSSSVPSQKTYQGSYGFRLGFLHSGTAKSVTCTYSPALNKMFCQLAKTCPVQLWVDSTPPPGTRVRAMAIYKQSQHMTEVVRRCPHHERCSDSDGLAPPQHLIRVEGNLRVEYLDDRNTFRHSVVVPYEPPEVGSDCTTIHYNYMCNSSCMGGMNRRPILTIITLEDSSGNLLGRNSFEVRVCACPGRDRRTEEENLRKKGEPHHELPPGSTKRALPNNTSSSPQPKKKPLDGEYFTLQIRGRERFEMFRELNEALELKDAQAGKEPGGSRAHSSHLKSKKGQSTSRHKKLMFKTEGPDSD
Target sequence in this assay (Q00987 whole entry): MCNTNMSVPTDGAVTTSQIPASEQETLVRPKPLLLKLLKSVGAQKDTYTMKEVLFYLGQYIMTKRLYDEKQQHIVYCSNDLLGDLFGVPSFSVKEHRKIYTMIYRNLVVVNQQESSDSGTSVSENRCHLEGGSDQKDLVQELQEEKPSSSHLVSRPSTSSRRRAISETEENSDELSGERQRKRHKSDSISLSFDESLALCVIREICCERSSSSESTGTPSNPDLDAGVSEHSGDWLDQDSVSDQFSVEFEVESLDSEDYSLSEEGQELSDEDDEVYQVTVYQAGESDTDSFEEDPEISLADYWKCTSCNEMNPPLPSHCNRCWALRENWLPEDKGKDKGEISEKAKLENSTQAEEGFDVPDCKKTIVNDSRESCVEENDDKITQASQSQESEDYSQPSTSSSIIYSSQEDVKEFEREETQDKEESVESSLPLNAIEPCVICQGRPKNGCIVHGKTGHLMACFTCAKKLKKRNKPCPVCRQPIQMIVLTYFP
In experiment [2] the target is T1, Tumour suppressor p53/oncoprotein Mdm2. Description: Inhibition of p53 interaction to MDM2 (unknown origin) by HTRF assay in presence of 0.02% bovine serum albumin. It is filed as protein assay. For orientation: TR-FRET usually uses a lanthanide donor and a delayed reading to cut background.
Target sequence in this assay (P04637 whole entry): as the sequence (P04637 whole entry) above
Target sequence in this assay (Q00987 whole entry): as the sequence (Q00987 whole entry) above
For experiment [3] the target is unchanged. Description: Inhibition of p53 interaction to MDM2 (unknown origin) by HTS assay. The format is protein assay.
Target sequence in this assay (P04637 whole entry): as the sequence (P04637 whole entry) above
Target sequence in this assay (Q00987 whole entry): as the sequence (Q00987 whole entry) above
Experiment [4] has the same target. The experiment in a line: Inhibition of p53 interaction to MDM2 (unknown origin). The format is protein assay.
Target sequence in this assay (P04637 whole entry): as the sequence (P04637 whole entry) above
Target sequence in this assay (Q00987 whole entry): as the sequence (Q00987 whole entry) above
For experiment [5] the target is unchanged. Description: Inhibition of p53 interaction to MDM2 (unknown origin) at 1.4 uM by HTRF assay. It is filed as protein assay.
Target sequence in this assay (P04637 whole entry, looked up): as the sequence (P04637 whole entry) above
Target sequence in this assay (Q00987 whole entry, looked up): as the sequence (Q00987 whole entry) above
A further experiment deals with NCI-H460. Description: Antiproliferative activity against human NCI-H460 cells. The format is functional, cell-based.
Experiment [6] concerns the target T1, Tumour suppressor p53/oncoprotein Mdm2. The experiment in a line: Inhibition of His-tagged p53 interaction to GST-tagged MDM2 (unknown origin). It is filed as protein assay.
Target sequence in this assay (P04637 whole entry): as the sequence (P04637 whole entry) above
Target sequence in this assay (Q00987 whole entry): as the sequence (Q00987 whole entry) above
The nature of experiment [7]: Antiproliferative activity against human DLD1 cells. It is filed as functional, cell-based. The following applies: DLD-1.
In experiment [8] the target is T1, Tumour suppressor p53/oncoprotein Mdm2. Description: Inhibition of p53 interaction to GST-tagged MDM2 (unknown origin). It is filed as protein assay.
Target sequence in this assay (P04637 whole entry): as the sequence (P04637 whole entry) above
Target sequence in this assay (Q00987 whole entry): as the sequence (Q00987 whole entry) above
The test system of a further experiment is A2780. Description: Antiproliferative activity against human A2780 cells. It is filed as functional, cell-based.
Experiment [9] deals with Tumour suppressor protein p53/Mdm4 (Homo sapiens, UniProt O15151). The experiment in a line: Inhibition of p53 interaction to MDMX (unknown origin) by fluorescence polarization assay. It is filed as protein assay.
Sequence of Tumour suppressor protein p53/Mdm4 (P04637 whole entry): as the sequence (P04637 whole entry) above
Sequence of Tumour suppressor protein p53/Mdm4 (O15151 whole entry): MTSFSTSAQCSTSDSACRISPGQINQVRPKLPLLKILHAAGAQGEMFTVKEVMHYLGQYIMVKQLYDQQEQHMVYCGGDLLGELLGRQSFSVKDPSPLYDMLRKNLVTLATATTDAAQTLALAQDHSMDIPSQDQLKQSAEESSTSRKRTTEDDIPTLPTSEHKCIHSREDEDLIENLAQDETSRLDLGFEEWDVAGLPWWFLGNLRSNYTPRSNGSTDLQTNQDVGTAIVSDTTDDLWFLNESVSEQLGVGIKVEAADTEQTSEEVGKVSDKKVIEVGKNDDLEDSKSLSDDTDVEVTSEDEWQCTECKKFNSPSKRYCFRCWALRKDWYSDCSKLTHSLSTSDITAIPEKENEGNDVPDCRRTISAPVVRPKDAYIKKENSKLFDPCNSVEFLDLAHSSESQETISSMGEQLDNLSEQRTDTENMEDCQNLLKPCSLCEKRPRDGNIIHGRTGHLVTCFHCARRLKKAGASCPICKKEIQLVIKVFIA

The term Ki denotes the dissociation constant of the complex between target and ligand, obtained from inhibition or displacement. `CC(C)Cc1cc(CCC(=O)O)ccc1-c1ccc(-c2ccc(OCC(=O)O)c(Cc3ccccc3)c2)c(Cc2ccccc2)c1` displayed a Ki in experiment [1] of 0.97 µM.
The IC50 is the concentration that inhibits the measured activity by half. As to `CC(C)(C)C[C@@H]1N[C@@H](C(=O)NCC[C@H](O)CO)[C@@H](c2cc(F)cc(Cl)c2)[C@@]1(C#N)c1ccc(Cl)cc1F`, the IC50 in experiment [2] was found to be 0.165 µM.
On to `Clc1ccc2c(-c3c(-c4ccc5c(c4)OCO5)ncn3CC3CC3)c[nH]c2c1`, for which, in experiment [3], the Ki is 1 µM.
Regarding `CCOC(=O)N1CCN(C(=O)[C@@]2(Sc3ccccc3)CC(=O)N(Cc3ccc(C#N)cc3)[C@@H]2c2c[nH]c3cc(Cl)ccc23)CC1`, the midpoint of inhibition in [4], the IC50, lay at 1 µM.
The same measure, in the same setting: for `COc1cccc(C2(Cc3cccc(Cl)c3)C(=O)Nc3cc(Cl)ccc32)c1` (configuration not stated) the value was 0.46 µM.
As to `Cc1ccc(CN2C(=O)c3ccccc3C2(O[C@H]2C=C[C@@H](O)C2)c2ccc(Cl)cc2)cc1` (some centres not stated), 1.4 µM corresponded to half-maximal inhibition in experiment [4] (IC50).
Same read-out and setting: with `CC(C)C1=C(C(=O)N2C[C@H](F)C[C@H]2C(=O)N2CCNC3(CC3)C2)SC2=N[C@@](C)(c3ccc(Cl)nc3)[C@@H](c3ccc(Cl)c(F)c3)N21` the figure was 0.0028 µM.
On to `Cc1cccc([C@H]2N(CC(=O)O)C(=O)C[C@@H](c3cccc(Cl)c3)[C@]23C(=O)Nc2cc(Cl)ccc23)c1` (racemic), for which the 50% inhibitory concentration (IC50) in [4] stood at 0.37 µM.
In experiment [4], `Cc1ccc(F)cc1[C@@H]1NC(=O)C[C@H](c2ccccc2OC(C)(C)C(=O)N2CCC(F)(F)CC2)[C@@]12C(=O)Nc1cc(Cl)ccc12` registered a 50% inhibitory concentration (IC50) of 0.054 µM.
Same read-out and setting: for `COC(=O)c1cccc(S(=O)(=O)N2c3ccc(C(=O)N4CCN(C)CC4)c(=O)n3[C@@H](c3ccc(Cl)cc3)[C@H]2c2ccc(Cl)cc2)c1` the value was 0.46 µM; for `COc1cc(C(=O)N(C)[C@@H](Cc2c[nH]c3ccccc23)C(=O)N2CCN(c3ccc([N+](=O)[O-])cc3)CC2)c([N+](=O)[O-])cc1OC`, 0.03 µM.
As a reminder, the inhibition is the change of the read-out against control, counted positive when it falls. In experiment [5], `O=C1C[C@H](c2cccc(Cl)c2)[C@@]2(C(=O)Nc3cc(Cl)ccc32)[C@H](c2cccc(Cl)c2)C1` displayed an inhibition of 94.4%.
Regarding `CC(C)C1=C(C(=O)N2CCC[C@H]2C(=O)N(C)C)SC2=N[C@@](C)(c3ccc(Cl)nc3)[C@@H](c3ccc(Cl)cc3)N21`, the IC50 with NCI-H460 amounted to 1.38 µM; in [6] it was 0.014 µM; in [7], 40.7 µM.
`Cc1ccc(F)cc1[C@@H]1NC(=O)C[C@H](c2cc(Cl)cnc2CC(C)(C)C(=O)O)[C@@]12C(=O)Nc1cc(Cl)ccc12`: the IC50 in experiment [2] was found to be 0.145 µM.
In turn, `C=C(CC)[C@H]1N2CC(=O)N(CCCN(C)C)N=C2C[C@@H](c2cccc(Cl)c2)[C@]12C(=O)Nc1cc(Cl)ccc12` displayed an IC50 in experiment [4] of 0.1 µM.
In [8], `CC(=O)N1CCC(Oc2ccc(I)cc2[C@@H]2NC(=O)C[C@H](c3cccc(Cl)c3)[C@@]23C(=O)Nc2cc(Cl)ccc23)CC1` gave a concentration for half-maximal inhibition (IC50) of 0.034 µM.
Regarding `COc1cccc([C@]2(Cc3cccc(Cl)c3)C(=O)Nc3cc(Cl)ccc32)c1`, the IC50 in experiment [4] was 0.28 µM.
The same measure, in the same setting: with `CCOC(=O)[C@@]1(c2ccc(Cl)cc2)N=C(c2ccc(OC)cc2OC(C)C)N(C(=O)N2CCN(C(C)=O)CC2)[C@@H]1c1ccc(Cl)cc1` the figure was 0.07 µM.
The compound `OC1CCc2c(Nc3ccc4c(c3)OCCN4CCc3c[nH]c4ccccc34)ccnc21` (configuration not stated) gave an IC50 with A2780 of 0.427 µM.
Regarding `CC(C)(C)C[C@H]1N[C@@H](C(=O)NCCN2CCOCC2)[C@H](c2cccc(Cl)c2F)[C@@]12C(=O)Nc1cc(Cl)ccc12`, in experiment [9], the inhibition constant Ki turned out to be 55 µM.
The compound `CC(C)(C)c1ncc(C2=N[C@@](C)(c3ccc(Cl)cc3)[C@@](C)(c3ccc(Cl)cc3)N2C(=O)N2CCN(CCOCCO)CC2)cn1` registered an IC50 in experiment [4] of 0.031 µM.
With `Cc1ccc(F)cc1[C@H]1NC(=O)C=C(c2cccc(Cl)c2)[C@]12C(=O)Nc1cc(Cl)ccc12`, in experiment [2], the concentration for half-maximal inhibition (IC50) stood at 0.066 µM.
The compound `COC(=O)[C@]1(c2ccc(Cl)cc2)N=CN(CC2CC2)[C@H]1c1ccc(Cl)cc1` came in with a Ki in experiment [3] of 3 µM.
`Fc1cc(Nc2ccncc2)cc(F)c1NCCc1c[nH]c2ccccc12`: the half-maximal inhibitory concentration (IC50) in the experiment on A2780 was more than 10 µM.
`CC(C)(C)C[C@@H]1N[C@@H](C(=O)NCCCCO)[C@@H](c2cccc(Cl)c2)[C@@]1(C#N)c1ccc(Cl)cc1`: the IC50 in [2] was found to be 0.309 µM.
